According to PMC11866407, “Structure of Clostridium leptum carboxyspermidine decarboxylase and comparison to homologs prevalent within the human gut microbiome” (Acta Crystallographica Section F: Structural Biology …, 2025):

Molecular target: T1, Clostridium leptum carboxyspermidine decarboxylase (ClCASDC) ([Clostridium] leptum, UniProt A7VSG2)
T1 construct: gene nspC; full length (376 residues), N-terminal His6 tag kept (pET-28b NdeI/XhoI), E. coli BL21 (DE3), codon-optimized; homodimer
T1 sequence (A7VSG2 1-376): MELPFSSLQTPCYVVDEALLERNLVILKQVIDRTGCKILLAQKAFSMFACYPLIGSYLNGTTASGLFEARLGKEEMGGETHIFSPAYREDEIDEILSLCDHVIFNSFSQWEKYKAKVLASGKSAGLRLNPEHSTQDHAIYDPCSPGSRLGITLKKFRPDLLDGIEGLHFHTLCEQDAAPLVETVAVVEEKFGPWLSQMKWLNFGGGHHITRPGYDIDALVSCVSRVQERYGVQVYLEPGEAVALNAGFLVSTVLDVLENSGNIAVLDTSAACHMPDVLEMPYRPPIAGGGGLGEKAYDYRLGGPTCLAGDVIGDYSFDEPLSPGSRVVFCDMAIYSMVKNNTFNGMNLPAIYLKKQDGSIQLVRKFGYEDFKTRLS
Assay: X-ray crystal structure, […] Å
Type: binding
Settings: covalent; Schiff base (internal aldimine) with Lys43; pre-incubated with 100 µM PLP, 5 mM DTT; HEPES pH 6.8; both chains

Cc1ncc(COP(=O)(O)O)c(C=O)c1O [PLP, pyridoxal 5′-phosphate]
X-ray crystal structure, 1.41 Å: PLP forms a Schiff base with Lys43 in both chains
